Patent publication US5658913A, “Chemopreventive compounds and a preparation method and use thereof” (Kim; Nak Doo, priority 1993, dated 1997)

Key:
Assay type in all cases: in vivo, Sprague-Dawley rat
[1] = test system: p-nitrophenol hydroxylase; assay: p-Nitrophenol hydroxylase activity of hepatic microsomes (Experimental Example 1(2-1)); conditions: 200 mg/kg
Method: In order to examine the effect of the compound of the present invention on the activity of the enzymes involved in phase I reaction, the experiments were carried out as follows:
(§1) Six groups of Sprague-Dawley rat weighing 190±30 g were administered with pyrazine(Groups 1 to 3) or the compound prepared in Example 1-1(Groups 4 to 6) in a dose of 200 mg/kg for 1, 2 or 3 days. After the hepatic microsomes were separated by following the same procedure as in the above (1), activity of p-nitrophenol hydrolase was measured according to the method of Koop(Dennis R. Koop, Hydroxylation p-nitrophenol by rabbit ethanol inducible cytochrome P-450 isozyme 3a, Molecular Pharmacol. 29, 399-404(1986)).
Thus, 1 mg of microsomes and 1mM p-nitrophenol were added to 0.6 ml of 0.1M potassium phosphate buffer(pH 6.8) to make the total volume of 0.9 ml. The resulting mixture was preliminarily reacted in a 37° C. incubator for 2 minutes and started to react while adding 1 mM NADPH(0.1 ml). After 3 minutes, 0.5 ml of 0.6N perchloric acid was added to develop a color and the absorbance at 546 nm was measured at once. The enzyme activity was expressed in terms of mole concentration of 4-nitrocatechol, the product of reaction for 1 minute.

aniline hydroxylase = assay: Aniline hydroxylase activity of hepatic microsomes (Experimental Example 1(2-2)); conditions: 200 mg/kg
Method: as §1
The same procedure as in the above (2-1) was carried out to measure the activity of aniline hydroxylase. The activity of aniline hydroxylase was measured according to the method of Mieyal(John J. Mieyal, Acceleration of the autooxidation of human oxyhemoglobin by aniline and its relation to hemoglobin-catalyzed aniline hydroxylation, J. Biol. Chem. 251, 3442-3446(1976)).
Thus, 1 mg of microsomes and 5 mM aniline were added to 0.6 ml of 0.1M potassium phosphate buffer(pH 6.8) to make the total volume of 0.9 ml. 1 mM NADPH was added to make the total volume of 1.0 ml and the resulting mixture was reacted at 37° C. After 10 minutes, 20% trichloroacetic acid was added to stop the reaction and the reaction mixture was centrifuged. To 1 ml of supernatant were added 0.1 ml of 5% phenol and 0.1 ml of 2.5N sodium carbonate, dissolved in 0.1N NaOH. The mixture was allowed to stand for 30 minutes to develop a color and the absorbance at 630 nm was measured at once. The enzyme activity was expressed in terms of mole concentration of 4-aminophenol, the product of reaction for 1 minute.

[2] = test system: N-nitrosodimethylamine demethylase; assay: N-Nitrosodimethylamine demethylase activity of hepatic microsomes (Experimental Example 1(2-3)); conditions: 200 mg/kg, 1 to 3 days, time-dependent
Method: as §1
The same procedure as in the above (2-1) was carried out to measure the activity of N-nitrosodimethyl demethylase. The activity of N-nitrosodimethyl demethylase was measured according to the method of Kaul and Novak(Kaul, L. L. and Novak, R. F., Induction of rabbit hepatic microsomal cytochrome P-450 by imidazole; enhanced metabolic activity and altered substrate specificity, Arch. Biochem. Biophys., 235, 470-481(1984)).
Thus, 10 mM N-Nitrosodimethylamine and 0.6 ml of 0.1M potassium phosphate buffer(pH 7.4) were added to 1 mg of microsomes, and 1 mM NADPH was added to make the total volume of 1 ml. After the mixture was reacted at 37° C. for 30 minutes, 20% trichloroacetic acid was added to stop the reaction and the reaction mixture was centrifuged. […] The mixture was allowed to stand at 37° C. for 45 minutes to develop a color and the absorbance at 412 nm was measured. […]

[3] = test system: microsomal epoxide hydrolase (mEH); assay: Western blot analysis for microsomal epoxide hydrolase (Experimental Example 3(1)); conditions: 200 mg/kg i.p. for 1, 2 or 3 days; FIG. 6
Method: The hepatic microsomes were separated and subjected to SDS-polyacrylamide gel electrophoresis by following the same procedure as in the above Experimental Example 1(1). Thereafter, western blot analysis for microsomal epoxide hydrolase(mEH) was carried out as follows:
Streptavidine-horseradish peroxidase and 4-chloro-1-naphtol were added to the reaction mixture to develop a color.

C=CCSc1cnccn1 [Example 1-1, 2-(2-propenylthio)pyrazine]
decrease in activity of p-nitrophenol hydrolase compared to pyrazine groups ([1]; 1 day): 64%
decrease in activity of p-nitrophenol hydrolase compared to pyrazine groups ([1]; 2 days): 73%
decrease in activity of p-nitrophenol hydrolase compared to pyrazine groups ([1]; 3 days): 82%
decrease in activity of aniline hydroxylase compared to pyrazine groups (aniline hydroxylase; 1 day): 57%
decrease in activity of aniline hydroxylase compared to pyrazine groups (aniline hydroxylase; 2 days): 80%
decrease in activity of aniline hydroxylase compared to pyrazine groups (aniline hydroxylase; 3 days): 88%
decrease in activity of N-nitrosodimethylamine demethylase compared to pyrazine groups [2]: 49-73%
expression of mEH compared to control or pyrazine groups [3]: significant increase in the expression of mEH
